Measurements taken from patent publication US9376408B2, “Therapeutic thiazolidinone compounds” (Merck Sharp & Dohme Corp., priority 2012, dated 2016).
Read-outs that look alike come from different tables or passages of the source.

What was measured:
[1] = target: T1, endogenous CETP from serum (Homo sapiens, UniProt P11597); assay: RTA assay in 95% human serum (CETP-catalyzed CE and TG transfer, endogenous CETP from serum); assay type: biochemical
T1 construct: yielding a concentration of approximately 15 nM endogenous CETP in the assay; from tissue; host or cells: human serum
T1 sequence (P11597 18-493): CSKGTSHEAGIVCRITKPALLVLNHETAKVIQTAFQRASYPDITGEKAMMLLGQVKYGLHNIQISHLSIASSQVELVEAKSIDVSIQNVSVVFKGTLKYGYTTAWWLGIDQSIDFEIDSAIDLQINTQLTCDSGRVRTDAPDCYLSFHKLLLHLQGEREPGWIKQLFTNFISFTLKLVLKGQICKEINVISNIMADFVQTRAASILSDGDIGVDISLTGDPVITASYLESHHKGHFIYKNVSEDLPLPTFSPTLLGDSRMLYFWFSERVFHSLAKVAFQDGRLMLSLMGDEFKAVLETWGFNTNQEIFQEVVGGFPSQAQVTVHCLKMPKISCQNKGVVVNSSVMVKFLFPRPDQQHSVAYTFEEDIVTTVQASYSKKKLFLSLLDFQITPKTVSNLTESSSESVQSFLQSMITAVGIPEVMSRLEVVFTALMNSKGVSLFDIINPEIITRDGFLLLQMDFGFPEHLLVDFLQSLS
Method: In Vitro Radioactive Assays of CETP-Catalyzed CE and TG Transfer (RTA Assay)
Reagents and sources are: [3H] cholesteryl oleate (GE #TRK.886), [3H] Triolein (Perkin-Elmer NET-431), Butylated hydroxyl toluene (Aldrich, #D4740-4), DOPC (Sigma, # P6354), Sodium Bromide (Fisher scientific #S255-500), PEG 8000 (Fisher, #BP233-1), and human HDL (Intracel Corp #RP-036).
An in vitro assay for determining IC50's to identify compounds that inhibit CETP transfer activity is performed based on a modification of a published method (Morton and Zilversmit, (1981) A plasma inhibitor of triglyceride and cholesteryl ester transfer activities, J. Biol. Chem. 256(23), 11992-11995). The ability of inhibitors to alter CETP activity is performed using two different assays: one using recombinant CETP and one using an endogenous plasma source of CETP. Both assays measure the transfer of [3H] cholesteryl oleate or [3H] triolein from exogenous LDL to HDL.
Radiolabeled donor particles are generated by first combining 100 μl of 200 μM butylated hydroxyl toluene in CHCl3, 216 μL of 21.57 mM DOPC in EtOH, and either 500 μCi [3H]-triolein (Perkin Elmer #NET-431) or 500 μCi [3H]-cholesteryl oleate (GE #TRK886) in a glass tube. Reagents are mixed, dried under nitrogen, and then resuspended in 2 mL of 50 mM Tris, 27 μM EDTA at pH 7.4. After a brief vortex, the solution is sonicated until clear and mixed with 20 mL of fresh human serum. The mixture is incubated overnight at 37° C. The [3H] labeled LDL substrate is separated at 1.063 g/ml density by sequential ultracentrifugal flotation in NaBr according to the method of Havel, Eder, et al., 1955, and Chapman, Goldstein, et al., 1981. Once isolated the particles are dialyzed 3× in CETP buffer (50 mM Tris, pH 7.4, 100 mM NaCl, 1 mM EDTA). Human HDL is purchased from Intracel and used as the acceptor particles.
Transfer assays are performed in a 96-well v-bottom polypropylene plate. For the RTA using recombinant CETP (2% RTA), an assay cocktail is prepared with the final concentrations 128 μg/mL HDL, 20 nM rCETP, 2% human serum, and 1×CETP buffer. 1 μL of each test compound diluted in DMSO is added to 47 μL of assay cocktail per well and incubated at 37° C. for 1 hour. To initiate the transfer reaction, 2 μL radiolabeled LDL is added. After an additional 60 min of incubation at 37° C., the transfer action is terminated by precipitation of LDL with an equal volume of 20% W/V PEG 8000. The plates are centrifuged at 2000 rpm for 30 minutes at 4° C. A 40 μL aliquot of the HDL-containing supernatant is transferred to a Packard Optiplate™ with 200 μL of MicroScint™ 20. After mixing, plates are counted by liquid scintillation. Counts present in the supernatant for blanks (wells containing only HDL acceptor, CETP buffer and DMSO) are subtracted from those containing test compounds and used to correct for non-specific transfer.
For the transfer assay using endogenous CETP from serum (95% RTA), the same procedure is used except that human serum is added such that a final concentration of serum of 95% of the total assay volume is achieved, yielding a concentration of approximately 15 nM endogenous CETP in the assay. This is then combined with HDL and CETP buffer and the reaction proceeds as above and is terminated as described.
Comparison of the counts of samples with inhibitors to an uninhibited (DMSO only) positive control yield a percent inhibition. A plot of percent inhibition vs. log of inhibitor concentration, fit to a Sigmoidal 4 parameter equation is used to calculate IC50.
Starting materials are commercially available or are made using known procedures or as shown below. The examples may be synthesized using the general schemes provided below. Synthetic intermediates for making the compounds are made as described below. The data reported for the examples below were generally obtained using the RTA assay in 95% human serum. […]

[2] = patients on anacetrapib plus baseline statin compared with patients treated with just a statin; cited from earlier work

SMILES	IC50 ([1]; read-out: IC50)	other results
COc1ccc(-c2ccc(C(=O)O)cc2C)cc1-c1ccc(C(F)(F)F)cc1CN1C(=O)S[C@H](c2cc(C(F)(F)F)cc(C(F)(F)F)c2)[C@@H]1C [Example 1, 2″-(((4S,5R)-5-(3,5-bis(trifluoromethyl)phenyl)-4-methyl-2-oxothiazolidin-3-yl)methyl)-4′-methoxy-2-methyl-4″-(trifluoromethyl)-[1,1′:3′,1″-terphenyl]-4-carboxylic acid]	–	IC50 ([1]; read-out: RTA (95% HS)): 62 nM
COc1ccc([C@H]2CC[C@H](C(=O)O)CC2)cc1-c1ccc(C(F)(F)F)nc1CN1C(=O)S[C@H](c2cc(C(F)(F)F)cc(C(F)(F)F)c2)[C@@H]1C [Example 6, trans-4-{3-[2-({(4S,5R)-5-[3,5-bis(trifluoromethyl)phenyl]-4-methyl-2-oxo-1,3-thiazolidin-3-yl}methyl)-6-(trifluoromethyl)pyridin-3-yl]-4-methoxyphenyl} cyclohexanecarboxylic acid]	257 nM	–
COc1ccc(-c2ccc(C(=O)O)cc2C)cc1-c1ccc(C(F)(F)F)nc1CN1C(=O)S[C@H](c2cc(C(F)(F)F)cc(C(F)(F)F)c2)[C@@H]1C [Example 2, 3′-[2-({(4S,5R)-5-[3,5-bis(trifluoromethyl)phenyl]-4-methyl-2-oxo-1,3-thiazolidin-3-yl}methyl)-6-(trifluoromethyl)pyridin-3-yl]-4′-methoxy-2-methylbiphenyl-4-carboxylic acid]	39 nM	–
COc1ncc(-c2c(C)cc(C(=O)O)cc2C)cc1-c1ccc(C(F)(F)F)nc1CN1C(=O)S[C@H](c2cc(C(F)(F)F)cc(C(F)(F)F)c2)[C@@H]1C [Example 5, 4-[2′-({(4S,5R)-5-[3,5-bis(trifluoromethyl)phenyl]-4-methyl-2-oxo-1,3-thiazolidin-3-yl}methyl)-2-methoxy-6′-(trifluoromethyl)-3,3′-bipyridin-5-yl]-3,5-dimethylbenzoic acid]	25 nM	–
COc1ncc(-c2ccc(C(=O)O)cc2C)cc1-c1ccc(C(F)(F)F)nc1CN1C(=O)S[C@H](c2cc(C(F)(F)F)cc(C(F)(F)F)c2)[C@@H]1C [Example 3, 4-[2′-({(4S,5R)-5-[3,5-bis(trifluoromethyl)phenyl]-4-methyl-2-oxo 1,3-thiazolidin-3-yl}methyl)-2-methoxy-6′-(trifluoromethyl)-3,3′-bipyridin-5-yl]-3-methylbenzoic acid]	106 nM	–
COc1ncc(-c2ccc(C(=O)O)cc2C)cc1-c1ccc(C(F)(F)F)cc1CN1C(=O)S[C@H](c2cc(C(F)(F)F)cc(C(F)(F)F)c2)[C@@H]1C [Example 7, 4-{5-[2-({(4S,5R)-5-[3,5-bis(trifluoromethyl)phenyl]-4-methyl-2-oxo-1,3-thiazolidin-3-yl}methyl)-4-(trifluoromethyl)phenyl]-6-methoxypyridin-3-yl}-3-methylbenzoic acid]	117 nM	–
COc1cc(F)c(C(C)C)cc1-c1ccc(C(F)(F)F)cc1CN1C(=O)O[C@H](c2cc(C(F)(F)F)cc(C(F)(F)F)c2)[C@@H]1C [anacetrapib]	–	decrease of LDL-C [2]: 40%; increase of HDL-C [2]: 138%
COc1ccc(CCC(=O)O)cc1-c1ccc(C(F)(F)F)nc1CN1C(=O)S[C@H](c2cc(C(F)(F)F)cc(C(F)(F)F)c2)[C@@H]1C [Example 4, 3-{3-[2-({(4S,5R)-5-[3,5-bis(trifluoromethyl)phenyl]-4-methyl-2-oxo-1,3-thiazolidin-3-yl}methyl)-6-(trifluoromethyl)pyridin-3-yl]-4-methoxyphenyl} propanoic acid]	300 nM	–
